Laboratory results: US8969573B2, “Compounds for the inhibition of cellular proliferation” (President and Fellows of Harvard College, priority 2010, dated 2015)
Where two headings read alike, the source gives them in different places.

Assays:
[1] = biological target: eIF4E/eIF4G interaction (Homo sapiens, UniProt P06730); test: Fluorescent polarization assay; type: binding; details: FITC eIF4G peptide and recombinant eIF4E, ratio to Z (4EGI-1 = 1)
Procedure: The difference between the two measurement yields net polarization which is considered full signal of the assay (100% control). […] The activity of compound at each concentration is determined by comparing the fluorescent polarization (FP) signal in the presence of compound to the control (no compound) value. The percent inhibition is =100-((FP compound/FP control)*100).

[2] = system: CRL2813 human melanoma; test: SRB assay (inhibition of cell proliferation); type: cell-based
Source text: (§1) A sulfur rhodamine B (SRB) assay was used to determine the extent of inhibition of cell proliferation as a measure of the anti-cancer activity of compounds of the present disclosure. The reagent SRB binds to cellular proteins and absorbs light proportionally to the cellular protein content, which is a surrogate marker for the number of cells. According to aspects of the present disclosure, the assay can be used to with any cancer cell line including breast cancer cell lines, prostate cancer cell lines, melanoma cell lines, lung cancer cell lines or any other cell lines of the cancers described herein.
(§2) The following protocol was used to determine the growth characteristics of certain cell lines CRL2351 human breast cancer and CRL2813 human melanoma from which cell lines having doubling times less than 48 hours were selected for growth inhibition experiments. […] The following materials were used in addition to the cancel cell lines: complete (5% fetal calf serum added) tissue culture media, 96-well tissue culture plates, Sulforhodamine B dye (SRB, 0.57% w/w), […] (TCA, 10%), acetic acid glacial (1%) and 10 mM Tris base. The cells were prepared and plated. Cancer cells were grown to 80% confluency in an incubator. The cells were trypsinized per standard protocol or as needed for each cell line. The trypsin was neutralized, cells dissociated and counted. Each cell line was plated at a density of 500, 1000 and 3000 cells per well (six wells each) in five separate plates. The cells were then returned to the incubator. One plate was then removed each day starting day one after plating. 100 μl of 10% TCA was then added and the cells were fixed at 4° C. until all the cells were fixed. […] The cell growth for vehicle treatment is considered to be 100%. The optical density was then measured and plotted for each starting cell number and cell line against time. The percent cell growth inhibition was calculated as 100 minus the % of control cell growth. The % of control cell growth=((mean OD sample−Mean OD day 0)/(mean OD vehicle−Mean OD day 0))*100.

[3] = system: CRL2351 human breast cancer; test: SRB assay (inhibition of cell proliferation); type: cell-based; details: CRL2351 human breast cancer cells
Source text: as §1, §2

[4] = Homo sapiens, CRL2813, CRL2813 human melanoma cells, summary table, read-out: IC50 [μM} CRL2813
[5] = Homo sapiens, summary table, read-out: IC50 [μM} CRL2351
[6] = summary table, read-out: IC50 [μM} CRL2351
[7] = CRL2813 human melanoma cells, Tables 1, 4, 5, read-out: SRB-IC50 (μM) 2813
[8] = Tables 1, 4, 5, read-out: SRB-IC50 (μM) 2351
[9] = CRL2813 human melanoma cells, summary table, read-out: IC50 [μM} CRL2813

Chain of eIF4E/eIF4G interaction (P06730 whole entry): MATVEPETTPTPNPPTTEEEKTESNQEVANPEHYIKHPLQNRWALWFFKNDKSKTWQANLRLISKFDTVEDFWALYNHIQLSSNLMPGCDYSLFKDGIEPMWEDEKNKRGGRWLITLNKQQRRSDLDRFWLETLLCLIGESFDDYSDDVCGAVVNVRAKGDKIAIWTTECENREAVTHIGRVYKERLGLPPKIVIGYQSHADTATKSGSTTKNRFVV

Compound | Fp (ratio to Z) [1] | IC50 [2, 7] | IC50 [3, 8] | further results
COc1ccc(-c2nc(NN=C(Cc3ccccc3[N+](=O)[O-])C(=O)O)sc2-c2ccc(OC)c(OC)c2)cc1 [KY-341PRI] | 1.2 |  |  | IC50 [2, 4]: 5 ± 1.74 µM; IC50 [3, 5]: 4 ± 0.51 µM
Br.CCN(CC)c1ccc(-c2csc(N/N=C(\Cc3ccccc3[N+](=O)[O-])C(=O)O)n2)cc1 [KY-615S] | 4 |  |  | IC50 [2, 4]: 12.5 µM; IC50 [3, 6]: > 20 µM
O=C(O)/C(Cc1ccccc1[N+](=O)[O-])=N\Nc1nc(-c2ccc(OCCCCCBr)cc2)cs1 [KH-148I] | 1.50 |  |  | IC50 [2, 4]: 0.9 µM
O=C(O)C(Cc1ccccc1[N+](=O)[O-])=NNc1nc(-c2ccccc2OCCBr)cs1 (single isomer, unassigned) [KH149-f] |  | 1 µM | 1 µM | 
O=C(O)C(Cc1ccccc1[N+](=O)[O-])=NNc1nc(-c2ccc(OCCCBr)cc2)cs1 (single isomer, unassigned) [KH147-s] |  | 5.5 µM | 11.2 µM | 
O=C(O)C(Cc1ccccc1[N+](=O)[O-])=NNc1nc(-c2cccc(OCCBr)c2)cs1 (single isomer, unassigned) [KH153-f] |  | 8 µM | 13.2 µM | 
O=C(O)C(Cc1ccccc1[N+](=O)[O-])=NNc1nc(-c2ccccc2OCCBr)cs1 (single isomer, unassigned) [KH149-s] |  | 11.5 µM | 6 µM | 
O=C(O)/C(Cc1ccccc1[N+](=O)[O-])=N\Nc1nc2c(s1)CSc1cc(Cl)c(Cl)cc1-2 [PC-218S] |  |  |  | IC50 [2, 4]: 3 µM; IC50 [3, 5]: 5.5 µM
COc1cc2c(cc1OC)-c1nc(N/N=C(/Cc3ccccc3[N+](=O)[O-])C(=O)O)sc1CC2 [PC-195S, (Z)-2-(2-(7,8-dimethoxy-4,5-dihydronaphtho[1,2-d]thiazol-2-yl)hydrazono)-3-(2-nitrophenyl) propanoic acid] |  |  |  | IC50 [2, 4]: 7.5 µM; IC50 [3, 5]: 4 µM
2-(2-(6,7-dichloro-4,5-dihydronaphtho[1,2-d]thiazol-2-yl)hydrazono)-3-(2-nitrophenyl)propanoic acid [PC-163F] |  |  |  | IC50 [2, 9]: < 1 µM; IC50 [3, 6]: < 1 µM
COc1ccc(-c2sc(N/N=C(/Cc3ccccc3[N+](=O)[O-])C(=O)O)nc2-c2ccc(C3CCCCC3)cc2)cc1 [KY-612SF] | 1 |  |  | IC50 [2, 9]: 0.1 µM
O=C(O)/C(Cc1ccccc1[N+](=O)[O-])=N/Nc1nc2c(s1)COc1c-2ccc(Cl)c1Cl [PC-202F, 2-(2-(6,7-dichloro-4H-chromeno[4,3-d]thiazol-2-yl)hydrazono)-3-(2-nitrophenyl)propanoic acid] |  |  |  | IC50 [2, 4]: < 1 µM
O=C(O)C(Cc1ccccc1[N+](=O)[O-])=NNc1nc(-c2cccc(OCCCCCBr)c2)cs1 (mixture of isomers) [KH156] |  | 6 µM | 9.1 µM | 
O=C(O)/C(Cc1ccccc1[N+](=O)[O-])=N\Nc1nc2c(s1)COc1c-2ccc(Cl)c1Cl [PC-202S, 2-(2-(6,7-dichloro-4H-chromeno[4,3-d]thiazol-2-yl)hydrazono)-3-(2-nitrophenyl)propanoic acid] |  |  |  | IC50 [2, 4]: 4.5 µM
O=C(O)c1nn(-c2nc(-c3ccc(Cl)c(Cl)c3)cs2)c2ccc([N+](=O)[O-])cc12 [RYF-440] | 1.3 |  |  | 
O=C(O)C(Cc1ccccc1[N+](=O)[O-])=NNc1nc(-c2ccccc2OCCCCCBr)cs1 (single isomer, unassigned) [KH152-f] |  | < 1 µM | 2.4 µM | 
O=C(O)C(Cc1ccccc1[N+](=O)[O-])=NNc1nc(-c2ccc(Cl)c(Cl)c2)cs1 [Compound 4EGI-1, reference compound] |  |  |  | IC50 ([2]; Homo sapiens, CRL2813, CRL2813 human melanoma cells, Tables 1, 4, 5, read-out: SRB-IC50 (μM) 2813): 1.3 µM; IC50 [2, 4]: 3.8 ± 1.06 µM; IC50 ([3]; Homo sapiens, Tables 1, 4, 5, read-out: SRB-IC50 (μM) 2351): 6.5 µM; IC50 [3, 5]: 5 ± 1.6 µM
O=C(O)C(Cc1ccccc1[N+](=O)[O-])=NNc1nc(-c2ccc(Br)cc2)cs1 [KH-53S] | 0.61 |  |  | 
O=C(O)/C(Cc1ccccc1[N+](=O)[O-])=N\Nc1nc(-c2ccc(N3CCOCC3)c(Br)c2)cs1 [KH-287II-S] | 0.62 |  |  | 
O=C(O)/C(Cc1ccccc1[N+](=O)[O-])=N/Nc1nc2c(s1)CSc1c-2ccc(Cl)c1Cl [PC-218F] |  |  |  | IC50 [2, 4]: 8 µM; IC50 [3, 5]: < 1 µM
CCN(CC)c1ccc(-c2csc(N/N=C(\Cc3ccccc3[N+](=O)[O-])C(=O)O)n2)cc1 [KY-615F] |  |  |  | IC50 [2, 9]: 18.8 µM; IC50 [3, 6]: 5.7 µM

Compound | Fp (ratio to Z) [1] | IC50 [2, 7] | IC50 [3, 8] | further results
O=C(O)C(Cc1ccccc1[N+](=O)[O-])=NNc1nc(-c2ccc(OCCCCOc3ccc(Cl)cc3)cc2)cs1 [KH-336S] | 0.96 |  |  | 
O=C(O)C(Cc1ccccc1[N+](=O)[O-])=NNc1nc(-c2ccccc2OCCCBr)cs1 (mixture of isomers) [KH150] |  | 0.9 µM | 2.8 µM | 
O=C(O)C(Cc1ccccc1[N+](=O)[O-])=NNc1nc(-c2ccc(OCCBr)cc2)cs1 (single isomer, unassigned) [KH146-s] |  | 14 µM | 14.5 µM | 
O=C(O)[C@@H](Cc1cccc([N+](=O)[O-])c1)Nc1nc(-c2ccc(Cl)c(Cl)c2)cs1 [KY-365] | 0.82 |  |  | IC50 [3, 5]: 3 µM
O=C(O)C(Cc1ccccc1[N+](=O)[O-])=NNc1nc(-c2ccc(OCCCCCOc3ccccc3)cc2)cs1 [KH-333S] | 0.96 |  |  | 
O=C(O)C(Cc1ccccc1[N+](=O)[O-])=NNc1nc(-c2cccc(OCCCBr)c2)cs1 (single isomer, unassigned) [KH154-s] |  |  | 1.5 µM | 
[N-]=[N+]=Nc1ccc(-c2csc(NN=C(Cc3ccccc3[N+](=O)[O-])C(=O)O)n2)cc1 [KH-8] | 0.99 |  |  | 
O=C(O)C(Cc1ccccc1[N+](=O)[O-])=NNc1nc(-c2ccc(OCCCCCBr)cc2)cs1 (mixture of isomers) [KH148] |  | 0.8 µM | < 0.54 µM | 
2-(2-(6,7-dichloro-4,5-dihydronaphtho[1,2-d]thiazol-2-yl)hydrazono)-3-(2-nitrophenyl)propanoic acid [PC-163S] |  |  |  | IC50 [2, 9]: 3 µM; IC50 [3, 6]: 3 µM
O=C(O)C(Cc1ccccc1[N+](=O)[O-])=NNc1nc(-c2cccc(OCCBr)c2)cs1 (single isomer, unassigned) [KH153-s] |  |  | 14 µM | 
O=C(O)C(=NNc1nc(-c2ccc(Cl)c(Cl)c2)cs1)c1cccc([N+](=O)[O-])c1 (stereo in doubt) [KY-788-Z, (Z)-2-(2-(4-(3,4-dichlorophenyl)thiazol-2-yl)hydrazono)-2-(3-nitrophenyl)acetic acid] | 0.86 |  |  | IC50 [3, 5]: > 20 µM
O=C(O)C(Cc1ccccc1[N+](=O)[O-])=NNc1nc(-c2ccc(OCCBr)cc2)cs1 (single isomer, unassigned) [KH146-f] |  | 2.1 µM | < 0.54 µM | 
O=C(O)C(Cc1ccccc1[N+](=O)[O-])=NNc1nc(-c2cccc(OCCCBr)c2)cs1 (single isomer, unassigned) [KH154-f] |  | 0.7 µM | 3.5 µM | 
O=C(O)C(Cc1ccccc1[N+](=O)[O-])=NNc1nc(-c2cccc(OCCCCBr)c2)cs1 (mixture of isomers) [KH155] |  | 10.8 µM | 8.6 µM | 
2-(2-(7,8-dichloro-4,5-dihydronaphtho[1,2-d]thiazol-2-yl)hydrazono)-3-(2-nitrophenyl)propanoic acid [PC-159S] |  |  |  | IC50 [2, 9]: 4 µM; IC50 [3, 6]: 12.5 µM
O=C(O)C(Cc1ccccc1[N+](=O)[O-])=NNc1nc(-c2ccc(OCCCOc3ccc(Cl)cc3)cc2)cs1 [KH-332S] | 1.09 |  |  | 
O=C(O)/C(Cc1ccccc1[N+](=O)[O-])=N/Nc1nc2c(s1)COc1cc(Cl)c(Cl)cc1-2 [PC-204F, 2-(2-(7,8-dichloro-4H-chromeno[4,3-d]thiazol-2-yl)hydrazono)-3-(2-nitrophenyl)propanoic acid] |  |  |  | IC50 [3, 5]: 2 µM
O=C(O)C(Cc1ccccc1[N+](=O)[O-])=NNc1nc(-c2ccccc2OCCCCCBr)cs1 (single isomer, unassigned) [KH152-s] |  | 4.5 µM | 7.8 µM | 
2-(2-(7,8-dichloro-4H-chromeno[4,3-d]thiazol-2-yl)hydrazono)-3-(2-nitrophenyl)propanoic acid [PC-204S] |  |  |  | IC50 [2, 9]: 3 µM; IC50 [3, 6]: < 1 µM
O=C(O)C(Cc1ccccc1[N+](=O)[O-])=NNc1nc(-c2ccc(OCCCBr)cc2)cs1 (single isomer, unassigned) [KH147-f] |  | 1.1 µM | 0.5 µM | 
